One data set has as its target T1, human β1-AR (Homo sapiens, UniProt P08588).
T1 construct: expressed in transfected cells
Nature of the data set: Direct measurement of ERK1/2 MAPK phosphorylation in CHO-β1 cells. Conditions: 3 and 10 μM, 5- and 10-min incubations. The format is cell-based. On the procedure: MAPK stimulation was examined by using the AlphaScreen Surefire ERK1/2 T202/Y204 assay kit from TGR Biosciences (PerkinElmer, Waltham, MA, USA), which gives a direct quantitative readout of ERK1/2 (p42/44) MAPK phosphorylation. Confluent cells (half-well 96-well plates) were serum starved for 24 h, then the assay was performed per manufacturer instructions (5- and 10-min incubations at 37°C: ligand concentrations of 3 and 10 μM). Phorbol 12,13-dibutyrate (1 μM) was used as a positive control.

The nature of data set [1]: Metabolic stability, rat liver microsomes. The format is in vitro ADME. Conditions: in the presence of NAD+, NADPH, or in the absence of cofactors. On the procedure:
(§1) NDD-713.HCl and -825.HCl were incubated (0.02, 0.1, or 0.5 μM at 37°C, 120 min) with human (XenoTech, Kansas City, KS, USA) or rat liver microsomes (BD Biosciences, Brea, CA, USA) at 0.4 mg/ml protein concentration. Metabolic reaction was initiated by addition of NADPH-regenerating system or NADPH-regenerating system with uridine diphosphate glucuronic acid. Samples were quenched at time points by acetonitrile addition. Control samples, which contained neither NADPH, nor uridine diphosphate glucuronic acid, were monitored for degradation. Compound concentrations were determined by ultraperformance LC-MS (UPLC-MS) relative to calibration standards that were prepared in quenched liver microsomes and fitted to exponential decay functions to determine first-order rate constants (k) for substrate depletion. These were used to calculate in vitro intrinsic clearance (CLint) values: CLint = k/microsomal protein content (0.4 mg protein/ml). Metabolic stability assays that used rat liver cytosol (BD Biosciences), human cryopreserved hepatocytes, or rat hepatocytes were carried out similarly. Average viable cell concentrations were determined by Trypan Blue exclusion methods (in the absence of test compounds). Studies were carried out by CDCO.
A general note: Microsomes from liver hold many membrane-bound enzymes, among them those of drug oxidation.

A short description of data set [2]: Metabolic stability, human hepatocytes. The format is in vitro ADME. Conditions: cryopreserved hepatocytes. On the procedure:
as §1

Data set [3] relates to HR (β1) and HQC (β2) in conscious rats. Nature of the data set: In vivo β1- vs. β2-selectivity, intravenous β-blocker, conscious rats (isoprenaline responses). More on the design: species or system rat. Conditions: i.v. 2 mg/kg bolus + 1 mg/kg/h infusion, n = 4. As to the method: Adult male Sprague-Dawley rats, weighing 300−400 g, were chronically instrumented with pulsed Doppler flow probes and intravascular catheters for cardiovascular monitoring and drug administration in a 2-stage surgical protocol as described ([51]). Surgery was performed under general anesthesia (fentanyl and medetomidine, 300 μg/kg of each, i.p.), with reversal and postoperative analgesia provided by atipamezole (1 mg/kg, s.c.) and buprenorphine (0.02 mg/kg, s.c.). Experiments were performed with animals that were fully conscious and unrestrained in home cages and given free access to food and water. Cardiovascular variables were recorded by using a customized, computer-based system (Instrument Development Engineering Evaluation, Maastrich Instruments Bv, Maastrich, The Netherlands) with raw data sampled every 2 ms. Hindquarters vascular conductance (HQC) was calculated as Doppler shift (flow)/mean arterial pressure.
Isoprenaline infusions were repeated during the final 60 min of β-blocker infusion and 3–4 and 23–24 h after β-blocker infusions finished.
Isoprenaline responses shown are absolute values for HR and HQC before the first dose of isoprenaline (baseline) and during the third minute of infusion of each dose. Values at baseline and during the highest isoprenaline dose were tested for statistical significance by using a nonparametric ANOVA test with correction for repeat measures [Quade test ([52])]. A value of P < 0.05 was taken as significant.

In the next data set the test system is HepG2 cells. Nature of the data set: HepG2 cytotoxicity (CellTiter-Glo). The format is cell-based, human. Conditions: 24 h, even at the limits of aqueous solubility. As to the method: Human hepatocyte carcinoma cells (HepG2; European Collection of Cell Cultures, Salisbury, United Kingdom) were grown in accordance with their guidelines by using DMEM. Cells at a density of 30,000 cells/well in 96-well plates were incubated overnight (37°C, 5% CO2 atmosphere). Medium was then removed and replaced with DMEM that contained control or compounds (1, 10, and 100 μM; n = 2 per concentration) for 24 h before addition of 100 μl/well of CellTiter-Glo Reagent (Promega, Madison, WI, USA) for ATP measurement and shaken to induce cell lysis. Luminescence was quantified on an AnalystAD plate-reader (Molecular Devices, Sunnyvale, CA, USA). Thioridizine (known HepG2 cytotoxicity) was used as positive control. Study was carried out by BioFocus DPI (Saffron Walden, United Kingdom).
On the technique in general: Cellular ATP, detected with luciferase, serves as a proxy for viable cell number.

The next data set deals with CYP2D6 (Homo sapiens, UniProt P10635). Nature of the data set: P450 inhibition in human liver microsomes. The format is in vitro ADME. More on the design: in human liver microsomes (batch 34689 for CYP1A2 and CYP3A4; batch 0910251 for CYP2C9, CYP2C19, and CYP2D6); tissue batch 0910251; host or cells: human liver microsomes. Conditions: 0.25–20 μM, hydrochloride salts used. As to the method:
Concentrations of NDD-713.HCl and -825.HCl (0.25–20 μM) were incubated in triplicate (37°C for 4–40 min) with substrates specific for individual P450 isoforms (see Supplemental Data for full details) in human liver microsomes (batch 34689 for CYP1A2 and CYP3A4; batch 0910251 for CYP2C9, CYP2C19, and CYP2D6) at protein concentrations of 0.4 mg/ml (CYP1A2, CYP2C9, CYP2D6 and CYP3A4/5) or 1.0 mg/ml (CYP2C19) and a total organic solvent concentration <1%. Reaction was initiated by addition of NADPH-regenerating system and samples were quenched by addition of ice-cold acetonitrile, which contained 0.15 μg/ml diazepam as an internal standard, before determination of the concentration of specific metabolites by LC-MS. Compound IC50 values (and positive control) for each P450 isoform was assessed according to %reduction in formation of the specific metabolite (maximal metabolite formation occurring in the absence of inhibitor). […] Control samples were included to confirm that the LC-MS assay was not affected by test compounds (and potential metabolites). Studies were carried out by CDCO.

T1 sequence (P08588 whole entry): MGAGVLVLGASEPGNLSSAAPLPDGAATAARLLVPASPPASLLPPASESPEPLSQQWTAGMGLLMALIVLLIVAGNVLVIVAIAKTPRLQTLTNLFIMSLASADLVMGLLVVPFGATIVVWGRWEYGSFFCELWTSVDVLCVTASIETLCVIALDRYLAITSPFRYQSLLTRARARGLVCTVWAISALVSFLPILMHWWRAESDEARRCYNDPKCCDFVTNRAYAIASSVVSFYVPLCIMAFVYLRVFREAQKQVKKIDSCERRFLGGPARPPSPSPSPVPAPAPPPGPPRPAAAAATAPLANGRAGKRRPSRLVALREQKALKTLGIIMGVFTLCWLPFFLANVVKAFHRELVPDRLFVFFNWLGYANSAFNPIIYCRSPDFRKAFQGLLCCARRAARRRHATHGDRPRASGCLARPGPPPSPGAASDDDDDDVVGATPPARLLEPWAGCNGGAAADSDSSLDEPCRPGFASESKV
CYP2D6, sequence (P10635 whole entry, canonical isoform): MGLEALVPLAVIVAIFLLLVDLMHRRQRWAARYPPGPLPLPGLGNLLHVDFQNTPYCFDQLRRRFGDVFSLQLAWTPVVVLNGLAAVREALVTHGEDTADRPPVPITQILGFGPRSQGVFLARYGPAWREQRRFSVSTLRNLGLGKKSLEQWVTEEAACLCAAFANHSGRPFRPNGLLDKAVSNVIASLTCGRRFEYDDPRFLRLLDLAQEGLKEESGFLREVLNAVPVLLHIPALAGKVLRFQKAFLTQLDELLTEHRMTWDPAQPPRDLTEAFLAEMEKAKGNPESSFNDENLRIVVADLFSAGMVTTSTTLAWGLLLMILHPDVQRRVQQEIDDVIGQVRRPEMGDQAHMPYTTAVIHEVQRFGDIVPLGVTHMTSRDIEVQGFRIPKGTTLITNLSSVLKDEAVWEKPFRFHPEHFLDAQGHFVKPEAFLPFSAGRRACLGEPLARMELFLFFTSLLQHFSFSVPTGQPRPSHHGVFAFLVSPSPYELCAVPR

`NC(=O)c1ccc(OCCNC[C@H](O)COc2ccc3c(c2)OC[C@@H](COCC2CC2)O3)cc1` [NDD-713]: the “Agonist response by directly measuring ERK1/2 MAPK” value on human β1-AR was “did not stimulate any agonist response”. Besides, the microsomal CLint (in general, a measure of how fast metabolising enzymes remove a compound, apart from limits set by blood flow) in data set [1] was below 0.1 µL/min/mg. Also, the hepatocyte CLint (as a rule, the rate of metabolic loss divided by the concentration) in data set [2] is below 6 µL/min/1e6 cells. Moreover, in data set [3], the “Effect on basal and isoprenaline-stimulated HR (β1)” value was “suppressed basal and isoprenaline-induced HR”; the “Effect on isoprenaline HQC response (β2)” value is “no effect on HQC responses”. Moreover, in the data set on HepG2 cells, the “Cytotoxic effects in HepG2 cell viability assay” value was “no cytotoxic effects”. The IC50 (commonly the point on the concentration scale where inhibition reaches its midpoint) on CYP2D6 was above 20 µM.
As to `O=C1NCc2cc(OCCNC[C@H](O)COc3ccc4c(c3)OC[C@@H](COCC3CC3)O4)ccc21` [NDD-825], the “Agonist response by directly measuring ERK1/2 MAPK” value at human β1-AR is “did not stimulate any agonist response”. Moreover, the microsomal CLint in data set [1] came out at 0.18 ± 0.2 µL/min/mg. In data set [2], this compound returned a hepatocyte CLint of 6 µL/min/1e6 cells. Further, in data set [3], the “Effect on basal and isoprenaline-stimulated HR (β1)” value is “suppressed basal and isoprenaline-induced HR”; the “Effect on isoprenaline HQC response (β2)” value was “no effect on HQC responses”. Besides, in the data set with HepG2 cells, the “Cytotoxic effects in HepG2 cell viability assay” value was “no cytotoxic effects”. Besides, the IC50 on CYP2D6 was above 20 µM.

The values above are taken from article PMC5471521, “Novel selective β1-adrenoceptor antagonists for concomitant cardiovascular and respiratory disease” (The FASEB Journal, 2017).
